This is an account of results in ChEMBL document CHEMBL3132770, “4-Aminocyclopentane-1,3-diols as platforms for diversity: synthesis of a screening library” (Medchemcomm, 2014).

What all share (type): functional, cell-based
Assay [1] in a line: Cytotoxicity against human LCLC-103H cells assessed as growth inhibition after 96 hrs by crystal violet staining assay.
In the next assay the test system is DAN-G. Put plainly: Cytotoxicity against human DAN-G cells assessed as growth inhibition after 96 hrs by crystal violet staining assay.
In the next assay the test system is MCF7. Kind of assay: Cytotoxicity against human MCF7 cells assessed as growth inhibition after 96 hrs by crystal violet staining assay. The note with it: MCF7, 96 h.
Another assay concerns 5637. Put plainly: Cytotoxicity against human 5637 cells assessed as growth inhibition after 96 hrs by crystal violet staining assay. The note with it: Homo sapiens, 5637, 96 h.

Structures are written as SMILES.

For `O=C(CCC(=O)c1ccc(-c2ccccc2)cc1)N[C@@H]1C[C@H](OCc2ccccc2)C[C@H]1O` (racemic), the IC50 was > 20 µM in assay [1], > 20 µM with DAN-G, 16 µM with MCF7 and > 20 µM in the assay with 5637.
As to `O=C(CCC(=O)c1ccc(-c2ccccc2)cc1)N[C@H]1C[C@H](OCc2ccccc2)C[C@@H]1O` (racemic), the IC50 in assay [1] was > 20 µM; in the assay with DAN-G it was > 20 µM; in the assay with MCF7, 14.2 µM; in the assay with 5637, 20.4 µM.
With `O=C(CCCc1c[nH]c2ccccc12)N[C@@H]1C[C@H](Oc2ccc(-c3ccccc3)cc2)C[C@H]1O` (racemic), the IC50 was 13.6 µM in assay [1], 12.8 µM with DAN-G, 6.76 µM in the assay on MCF7 and 11.9 µM with 5637.
Consider `O=C(N[C@@H]1C[C@H](Oc2ccc(-c3ccccc3)cc2)C[C@H]1O)C(c1ccccc1)c1ccccc1` (racemic), for which the IC50 in assay [1] was 12.3 µM; with DAN-G, 13 µM; with MCF7, 8.91 µM; in the assay with 5637, 12.2 µM.
With `O=C(N[C@H]1C[C@H](Oc2ccc(-c3ccccc3)cc2)C[C@@H]1O)C(c1ccccc1)c1ccccc1` (racemic), the IC50 in assay [1] amounted to 13.1 µM; with DAN-G, 17.5 µM; in the assay with MCF7, 10.3 µM; with 5637 it was 12.5 µM.
Consider `O=C(O)CCCc1ccc(N(CCCl)CCCl)cc1` [CHLORAMBUCIL], for which the half-maximal inhibitory concentration (IC50) in assay [1] was 14.5 µM; in the assay with DAN-G, 27.8 µM.
Turning to `N[C@@H](Cc1ccc(N(CCCl)CCCl)cc1)C(=O)O` [MELPHALAN], the figures for the IC50 (in assay [1]; with 5637) were 4 µM and 1.32 µM, respectively.
